In PubChem BioAssay (NCI):
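Exposure lasted 48 hours, with cells grown in 96-well plates and compounds tested at five concentrations. The concentration for 50% growth inhibition is given as GI50. TGI denotes the concentration required for complete inhibition of growth.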

How the values were obtained:
Assay in all cases: inhibition of tumour cell growth, NCI panel, 48 h
HOP-92 NSCLC = test system: HOP-92 NSCLC
NCI-H460 lung = test system: NCI-H460 lung
MCF7 breast = test system: MCF7 breast
DU-145 prostate = test system: DU-145 prostate
TK-10 renal = test system: TK-10 renal
ACHN renal = test system: ACHN renal
HOP-62 NSCLC = test system: HOP-62 NSCLC
NCI-H522 lung = test system: NCI-H522 lung
MOLT-4 leukemia = test system: MOLT-4 leukemia
A549 NSCLC = test system: A549 NSCLC
HT29 colon = test system: HT29 colon
SK-MEL-5 melanoma = test system: SK-MEL-5 melanoma
HL-60(TB) leukemia = test system: HL-60(TB) leukemia
SF-539 CNS = test system: SF-539 CNS
RPMI-8226 leukemia = test system: RPMI-8226 leukemia
OVCAR-3 ovarian = test system: OVCAR-3 ovarian
HCT-15 colon = test system: HCT-15 colon
LOX IMVI melanoma = test system: LOX IMVI melanoma
NCI-H226 lung = test system: NCI-H226 lung
CAKI-1 renal = test system: CAKI-1 renal
BT-549 breast = test system: BT-549 breast
CCRF-CEM leukemia = test system: CCRF-CEM leukemia
A498 renal = test system: A498 renal
M14 melanoma = test system: M14 melanoma
SNB-75 CNS = test system: SNB-75 CNS
MDA-MB-435 = test system: MDA-MB-435
T-47D breast = test system: T-47D breast
OVCAR-4 ovarian = test system: OVCAR-4 ovarian
NCI/ADR-RES ovarian = test system: NCI/ADR-RES ovarian
SW-620 colon = test system: SW-620 colon
RXF 393 renal = test system: RXF 393 renal
NCI-H23 lung = test system: NCI-H23 lung
786-0 renal = test system: 786-0 renal
COLO 205 colon = test system: COLO 205 colon
UACC-62 melanoma = test system: UACC-62 melanoma
K-562 leukemia = test system: K-562 leukemia
SF-295 CNS = test system: SF-295 CNS
SK-OV-3 ovarian = test system: SK-OV-3 ovarian
UO-31 renal = test system: UO-31 renal
HCC-2998 colon = test system: HCC-2998 colon
OVCAR-8 ovarian = test system: OVCAR-8 ovarian
IGROV1 ovarian = test system: IGROV1 ovarian
SN12C renal = test system: SN12C renal
HCT-116 colon = test system: HCT-116 colon
U251 CNS = test system: U251 CNS
SNB-19 CNS = test system: SNB-19 CNS
SK-MEL-28 melanoma = test system: SK-MEL-28 melanoma
MALME-3M melanoma = test system: MALME-3M melanoma
SK-MEL-2 melanoma = test system: SK-MEL-2 melanoma
SF-268 CNS = test system: SF-268 CNS
KM12 colon = test system: KM12 colon
EKVX NSCLC = test system: EKVX NSCLC
OVCAR-5 ovarian = test system: OVCAR-5 ovarian
UACC-257 melanoma = test system: UACC-257 melanoma
HS 578T breast = test system: HS 578T breast
MDA-MB-231 breast = test system: MDA-MB-231 breast
SR leukemia = test system: SR leukemia

SMILES: O=C(Nc1ccc(Oc2cccc(Cl)c2)c(Cl)c1)c1cccnc1
- GI50 (HOP-92 NSCLC): 2730 nM
- TGI (HOP-92 NSCLC): 22.1 µM
- GI50 (NCI-H460 lung): 1880 nM
- TGI (NCI-H460 lung): 19.1 µM
- GI50 (MCF7 breast): 597 nM
- TGI (MCF7 breast): > 50 µM
- GI50 (DU-145 prostate): 2150 nM
- TGI (DU-145 prostate): 36 µM
- GI50 (TK-10 renal): 3.16 µM
- TGI (TK-10 renal): 40.1 µM
- GI50 (ACHN renal): 4.06 µM
- TGI (ACHN renal): > 50 µM
- GI50 (HOP-62 NSCLC): 1800 nM
- TGI (HOP-62 NSCLC): 25.1 µM
- GI50 (NCI-H522 lung): 968 nM
- TGI (NCI-H522 lung): 5.89 µM
- GI50 (MOLT-4 leukemia): 2860 nM
- TGI (MOLT-4 leukemia): > 50 µM
- GI50 (A549 NSCLC): 2080 nM
- TGI (A549 NSCLC): > 50 µM
- GI50 (HT29 colon): 823 nM
- TGI (HT29 colon): 6.42 µM
- GI50 (SK-MEL-5 melanoma): 1780 nM
- TGI (SK-MEL-5 melanoma): 6.92 µM
- GI50 (HL-60(TB) leukemia): 1510 nM
- TGI (HL-60(TB) leukemia): 6.16 µM
- GI50 (SF-539 CNS): 1490 nM
- TGI (SF-539 CNS): 7.54 µM
- GI50 (RPMI-8226 leukemia): 2000 nM
- TGI (RPMI-8226 leukemia): > 50 µM
- GI50 (OVCAR-3 ovarian): 1220 nM
- TGI (OVCAR-3 ovarian): 4.28 µM
- GI50 (HCT-15 colon): 343 nM
- TGI (HCT-15 colon): > 50 µM
- GI50 (LOX IMVI melanoma): 2900 nM
- TGI (LOX IMVI melanoma): 13 µM
- GI50 (NCI-H226 lung): 2160 nM
- TGI (NCI-H226 lung): 32 µM
- GI50 (CAKI-1 renal): 2630 nM
- TGI (CAKI-1 renal): 36.6 µM
- GI50 (BT-549 breast): 5.42 µM
- TGI (BT-549 breast): 44.3 µM
- GI50 (CCRF-CEM leukemia): 1890 nM
- TGI (CCRF-CEM leukemia): > 50 µM
- GI50 (A498 renal): 1520 nM
- TGI (A498 renal): 4.68 µM
- GI50 (M14 melanoma): 1380 nM
- TGI (M14 melanoma): 29 µM
- GI50 (SNB-75 CNS): 1210 nM
- TGI (SNB-75 CNS): 4.81 µM
- GI50 (MDA-MB-435): 155 nM
- TGI (MDA-MB-435): 723 nM
- GI50 (T-47D breast): 1910 nM
- TGI (T-47D breast): > 50 µM
- GI50 (OVCAR-4 ovarian): 14.5 µM
- TGI (OVCAR-4 ovarian): > 50 µM
- GI50 (NCI/ADR-RES ovarian): 1280 nM
- TGI (NCI/ADR-RES ovarian): 11.3 µM
- GI50 (SW-620 colon): 1210 nM
- TGI (SW-620 colon): > 50 µM
- GI50 (RXF 393 renal): 927 nM
- TGI (RXF 393 renal): 4.65 µM
- GI50 (NCI-H23 lung): 3.3 µM
- TGI (NCI-H23 lung): > 50 µM
- GI50 (786-0 renal): 2690 nM
- TGI (786-0 renal): 11.6 µM
- GI50 (COLO 205 colon): 1390 nM
- TGI (COLO 205 colon): 8.1 µM
- GI50 (UACC-62 melanoma): 3.89 µM
- TGI (UACC-62 melanoma): > 50 µM
- GI50 (K-562 leukemia): 255 nM
- TGI (K-562 leukemia): > 50 µM
- GI50 (SF-295 CNS): 1330 nM
- TGI (SF-295 CNS): 16 µM
- GI50 (SK-OV-3 ovarian): 2120 nM
- TGI (SK-OV-3 ovarian): > 50 µM
- GI50 (UO-31 renal): 3.63 µM
- TGI (UO-31 renal): 30 µM
- GI50 (HCC-2998 colon): 5.62 µM
- TGI (HCC-2998 colon): 15.7 µM
- GI50 (OVCAR-8 ovarian): 2850 nM
- TGI (OVCAR-8 ovarian): 33.9 µM
- GI50 (IGROV1 ovarian): 2760 nM
- TGI (IGROV1 ovarian): > 50 µM
- GI50 (SN12C renal): 3.74 µM
- TGI (SN12C renal): > 50 µM
- GI50 (HCT-116 colon): 2110 nM
- TGI (HCT-116 colon): > 50 µM
- GI50 (U251 CNS): 2230 nM
- TGI (U251 CNS): 18 µM
- GI50 (SNB-19 CNS): 3.15 µM
- TGI (SNB-19 CNS): > 50 µM
- GI50 (SK-MEL-28 melanoma): 7.2 µM
- TGI (SK-MEL-28 melanoma): > 50 µM
- GI50 (MALME-3M melanoma): 3.16 µM
- TGI (MALME-3M melanoma): 32.8 µM
- GI50 (SK-MEL-2 melanoma): 2110 nM
- TGI (SK-MEL-2 melanoma): 20 µM
- GI50 (SF-268 CNS): 3.71 µM
- TGI (SF-268 CNS): 46.6 µM
- GI50 (KM12 colon): 782 nM
- TGI (KM12 colon): 12 µM
- GI50 (EKVX NSCLC): 3.62 µM
- TGI (EKVX NSCLC): > 50 µM
- GI50 (OVCAR-5 ovarian): 5.5 µM
- TGI (OVCAR-5 ovarian): > 50 µM
- GI50 (UACC-257 melanoma): 5.1 µM
- TGI (UACC-257 melanoma): 27 µM
- GI50 (HS 578T breast): 1830 nM
- TGI (HS 578T breast): 35.5 µM
- GI50 (MDA-MB-231 breast): 6.25 µM
- TGI (MDA-MB-231 breast): 46 µM
- GI50 (SR leukemia): 395 nM
- TGI (SR leukemia): > 50 µM
